Data: ChEMBL document CHEMBL3217537, “The importance of solvation in the design of ligands targeting membrane proteins” (Medchemcomm, 2011)

Biological target: 5-hydroxytryptamine receptor 4 (Rattus norvegicus, UniProt Q62758)
Experiment: Displacement of [3H]GR113808 from 5-HT4 receptor in rat striatal membranes after 30 mins by liquid scintillation spectrometric analysis
Format: cell membranes, Striatum, Membrane

5-hydroxytryptamine receptor 4, sequence (Q62758 whole entry): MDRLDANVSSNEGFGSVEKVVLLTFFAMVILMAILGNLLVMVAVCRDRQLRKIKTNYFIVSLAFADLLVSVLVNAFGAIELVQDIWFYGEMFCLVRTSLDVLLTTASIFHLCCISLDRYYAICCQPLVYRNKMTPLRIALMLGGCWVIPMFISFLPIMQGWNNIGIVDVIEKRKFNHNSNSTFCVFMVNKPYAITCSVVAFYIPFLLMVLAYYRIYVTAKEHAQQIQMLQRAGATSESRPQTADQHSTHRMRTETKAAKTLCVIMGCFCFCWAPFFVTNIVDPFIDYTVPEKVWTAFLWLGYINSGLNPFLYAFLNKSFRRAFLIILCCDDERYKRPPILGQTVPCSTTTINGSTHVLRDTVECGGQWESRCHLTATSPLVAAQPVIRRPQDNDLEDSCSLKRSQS

Row | SMILES | Ki
1 | CCCCN1CCC(CNC(=S)c2cccc3[nH]cnc23)CC1 | 0.15 nM
2 | CCCCN1CCC(CNC(=S)c2cc(Cl)cc3[nH]cnc23)CC1 | 0.081 nM
